Measurements taken from patent publication US20090069408A1, “TRICYCLIC COMPOUNDS USEFUL IN TREATING IRON DISORDERS” (XENON PHARMACEUTICALS INC., priority 2007, published 2009).
Where a name gives a salt, the structure may show the parent alone.

Key:
DMT1 = target: T1, DMT1 (Homo sapiens, UniProt P49281); assay: DMT1 Activity Assay (in vitro); assay type: cell-based; details: read-out: IC50 Activity Level
T1 sequence (P49281 1-568): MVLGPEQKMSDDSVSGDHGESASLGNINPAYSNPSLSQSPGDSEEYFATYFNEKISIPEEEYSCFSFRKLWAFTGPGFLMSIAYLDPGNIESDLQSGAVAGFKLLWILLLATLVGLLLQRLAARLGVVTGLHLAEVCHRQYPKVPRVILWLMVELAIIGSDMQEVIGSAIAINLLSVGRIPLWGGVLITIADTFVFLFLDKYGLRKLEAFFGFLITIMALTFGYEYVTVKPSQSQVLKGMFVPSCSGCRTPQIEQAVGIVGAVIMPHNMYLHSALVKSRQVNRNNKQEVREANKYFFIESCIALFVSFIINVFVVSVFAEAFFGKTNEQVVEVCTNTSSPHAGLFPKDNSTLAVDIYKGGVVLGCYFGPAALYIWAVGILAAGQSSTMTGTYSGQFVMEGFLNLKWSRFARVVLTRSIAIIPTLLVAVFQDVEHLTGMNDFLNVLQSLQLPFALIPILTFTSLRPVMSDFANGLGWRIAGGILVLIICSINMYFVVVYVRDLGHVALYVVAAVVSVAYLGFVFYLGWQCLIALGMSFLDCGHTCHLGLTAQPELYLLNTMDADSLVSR
From the text: In particular, identification of the compounds of the invention ability to modulate, preferably to inhibit, DMT1 activity, can be assessed using a variety of in vitro and in vivo assays, for measuring uptake of reduced iron (Fe^2+). One such protocol involves the screening of chemical agents for ability to modulate the activity of DMT1 thereby identifying it as a modulating agent. The in vitro activity of DMT1 can be measured in cell based assays by either directly measuring iron flux (using a radioactively labelled iron ^55Fe) or by measuring the fluorescence of a cell permeable iron fluorophore such as calcein. Stable cell lines overexpressing DMT1 are exposed to ^55Fe or loaded with calcein and then compound is applied. […] Alternatively, in another format electrophysiological techniques can be used to measure the current or iron or other metals traversing the cell membrane with DMT1 in a Xenopus oocyte or other cell based system (Gunshin et al., Nature, 1997, 31; 388(6641):482-8).
This example discloses various in vitro assay for testing and profiling test agents against DMT1 stably expressed in cells of either an endogenous or recombinant origin. These assays can use stable cell lines overexpressing DMT1 or intestinal cells and intestinal tissue expressing endogenous DMT1. DMT1 function could also be assessed in other cell types that express DMT1. Of greatest relevance would be the erythrocytes (e.g. K562 cells) or hepatocytes (e.g. […]).
DMT1 function can be assessed in a number of ways, including monitoring fluorescence changes of an iron fluorophore (e.g. calcein), monitoring uptake of radiolabelled iron (^55Fe or ^59Fe) (Picard et al., J. Biol. Chem., 2000, 275(46):35738-45 and Wetli et al., Chem. Biol. 2006 September; 13(9):965-72), or by assessing the current or transport of iron and other metals into the cells or tissues using standard electrophysiological techniques (Gunshin et al., Nature, 1997, 388(6641):482-8.).
Variations of these assays involve alterations of incubation times, the iron status of the cells and tissues (which may be modulated by chemical chelators or by harvesting from iron deficient animals), the metal cation detected and the pH of the reaction can generally be made by conventional techniques known to those skilled in the art.

melting point [°C]	IC50 (DMT1) [nM]	SMILES
> 220		Cc1ccc2c(oc3c(CSC(=N)N)c(C)ccc32)c1CSC(=N)N (as salt: hydrobromid) [Example 1.3, (3,7-dimethyldibenzo[b,d]furan-4,6-diyl)bis(methylene) dicarbamimidothioate dihydrobromide]
> 220		N=C(N)SCc1cccc2c1oc1c(CSC(=N)N)cc(F)cc12 (as salt: hydrobromid) [Example 1.6, (2-fluorodibenzo[b,d]furan-4,6-diyl)bis(methylene) dicarbamimidothioate dihydrobromide]
> 220		N=C(N)SCc1cc(Br)cc2c1oc1c(CSC(=N)N)cc(Br)cc12 (as salt: hydrobromid) [Example 1.7, (2,8-dibromodibenzo[b,d]furan-4,6-diyl)bis(methylene) dicarbamimidothioate dihydrobromide]
> 250		N=C(N)SCc1cccc2cc3cccc(CSC(=N)N)c3cc12 (as salt: hydrobromid) [Example 1.9, anthracene-1,8-diylbis(methylene) dicarbamimidothioate dihydrobromide]
> 230		N=C(N)SCc1cccc2c1sc1c(CSC(=N)N)cc(F)cc12 (as salt: hydrobromid) [Example 1.10, (2-fluorodibenzo[b,d]thiophene-4,6-diyl)bis(methylene) dicarbamimidothioate dihydrobromide]
	100 to 1000	N=C(N)SCc1cccc2c1sc1c(CSC(=N)N)cccc12 [Example 1, dibenzo[b,d]thiophene-4,6-diylbis(methylene) dicarbamimidothioate dihydrobromide]
	100 to 1000	N=C(N)SCc1c(Br)ccc2c1sc1c(CSC(=N)N)c(Br)ccc12 [Example 1.1, (3,7-dibromodibenzo[b,d]thiophene-4,6-diyl)bis(methylene) dicarbamimidothioate dihydrobromide]
	100 to 1000	N=C(N)SCc1cccc2c1sc1c(CSC(=N)N)c(Br)ccc12 [Example 1.2, (3-bromodibenzo[b,d]thiophene-4,6-diyl)bis(methylene) dicarbamimidothioate dihydrobromide]
	100 to 1000	Cc1ccc2c(oc3c(CSC(=N)N)c(C)ccc32)c1CSC(=N)N [Example 1.3, (3,7-dimethyldibenzo[b,d]furan-4,6-diyl)bis(methylene) dicarbamimidothioate dihydrobromide]
	10 to 100	N=C(N)SCc1c(F)ccc2c1oc1c(CSC(=N)N)c(F)ccc12 [Example 1.4, (3,7-difluorodibenzo[b,d]furan-4,6-diyl)bis(methylene) dicarbamimidothioate dihydrobromide]
	100 to 1000	N=C(N)SCc1c(Cl)ccc2c1oc1c(CSC(=N)N)c(Cl)ccc12 [Example 1.5, (3,7-dichlorodibenzo[b,d]furan-4,6-diyl)bis(methylene) dicarbamimidothioate]
	10 to 100	N=C(N)SCc1cccc2c1oc1c(CSC(=N)N)cc(F)cc12 [Example 1.6, (2-fluorodibenzo[b,d]furan-4,6-diyl)bis(methylene) dicarbamimidothioate dihydrobromide]
	10 to 100	N=C(N)SCc1cc(Br)cc2c1oc1c(CSC(=N)N)cc(Br)cc12 [Example 1.7, (2,8-dibromodibenzo[b,d]furan-4,6-diyl)bis(methylene) dicarbamimidothioate dihydrobromide]
	10 to 100	N=C(N)SCc1cccc2c1oc1c(CSC(=N)N)cccc12 [Example 1.8, dibenzo[b,d]furan-4,6-diylbis(methylene) dicarbamimidothioate dihydrobromide]
	100 to 1000	N=C(N)SCc1cccc2cc3cccc(CSC(=N)N)c3cc12 [Example 1.9, anthracene-1,8-diylbis(methylene) dicarbamimidothioate dihydrobromide]
	100 to 1000	N=C(N)SCc1cccc2c1sc1c(CSC(=N)N)cc(F)cc12 [Example 1.10, (2-fluorodibenzo[b,d]thiophene-4,6-diyl)bis(methylene) dicarbamimidothioate dihydrobromide]
	10 to 100	N=C(N)SCc1cc(F)cc2c1sc1c(CSC(=N)N)cc(Cl)cc12 [Example 1.11, (2-chloro-8-fluorodibenzo[b,d]thiophene-4,6-diyl)bis(methylene) dicarbamimidothioate dihydrobromide]
	100 to 1000	N=C(N)SCc1cccc2c1Oc1c(CSC(=N)N)cccc1S2 [Example 1.12, phenoxathiine-4,6-diylbis(methylene) dicarbamimidothioate dihydrobromide]
	100 to 1000	N=C(N)SCc1c(Br)ccc2c1oc1c(CSC(=N)N)c(Br)ccc12 [Example 1.13, (3,7-dibromodibenzo[b,d]furan-4,6-diyl)bis(methylene) dicarbamimidothioate dihydrobromide]
	≥ 1000	N=C(N)SCc1cccc2sc3cccc(CSC(=N)N)c3c12 [Example 1.14, dibenzo[b,d]thiophene-1,9-diylbis(methylene) dicarbamimidothioate dihydrobromide]
	≥ 1000	N=C(N)SCc1cccc2c1-c1c(CSC(=N)N)cccc1C2=O [Example 1.15, (9-oxo-9H-fluorene-4,5-diyl)bis(methylene) dicarbamimidothioate dihydrobromide]
	≥ 1000	N=C(N)SCc1cccc2c(=O)c3cccc(CSC(=N)N)c3oc12 [Example 1.16, (9-oxo-9H-xanthene-4,5-diyl)bis(methylene) dicarbamimidothioate dihydrobromide]
	≥ 1000	Cc1c2cccc(CSC(=N)N)c2nc2c(CSC(=N)N)cccc12 [Example 1.17, (9-methylacridine-4,5-diyl)bis(methylene) dicarbamimidothioate dihydrobromide]
	100 to 1000	N=C(N)SCc1cccc2cc3cccc(CSC(=N)N)c3nc12 [Example 1.18, acridine-4,5-diylbis(methylene) dicarbamimidothioate dihydrobromide]
	≥ 1000	N=C(N)SCc1cccc2c1-c1c(cccc1CSC(=N)N)CSC2 [Example 1.19, (5,7-dihydrodibenzo[c,e]thiepine-1,11-diyl)bis(methylene) dicarbamimidothioate dihydrobromide]
	100 to 1000	N=C(N)SCc1cccc2c1C(=O)c1c(CSC(=N)N)cccc1-2 [Example 2, (9-oxo-9H-fluorene-1,8-diyl)bis(methylene) dicarbamimidothioate dihydrobromide]
	10 to 100	N=C(N)SCc1cccc2c1-c1c(CSC(=N)N)cccc1-2 [Example 2.1, biphenylene-1,8-diylbis(methylene)dicarbamimidothioate dihydrobromide]
	100 to 1000	N=C(N)SCc1ccc(CSC(=N)N)c2c1-c1c(CSC(=N)N)ccc(CSC(=N)N)c1-2 [Example 3, biphenylene-1,4,5,8-tetrayltetrakis(methylene) tetracarbamimidothioate tetrahydrobromide]
	≥ 1000	CC(C)(C)c1cc(CSC(=N)N)c2c(c1)C(C)(C)c1cc(C(C)(C)C)cc(CSC(=N)N)c1O2 [Example 4, (2,7-di-tert-butyl-9,9-dimethyl-9H-xanthene-4,5-diyl)bis(methylene) dicarbamimidothioate dihydrobromide]
	10 to 100	N=C(N)SCc1cc(F)cc2c1-c1c(CSC(=N)N)cc(F)cc1-2 [Example 5, (3,6-difluorobiphenylene-1,8-diyl)bis(methylene) dicarbamimidothioate dihydrobromide]
